The values below are quoted from earlier work in patent US11197842B2 (BIOGEN MA INC., priority 2014, dated 2021).

For this data set the following is noted: species not stated.

Each structure is given as a SMILES string. Structures can show the parent of a compound that is named as a salt.

As for `COC(=O)/C=C/C(=O)O` [MMF, monomethyl fumarate], the “half-life of MMF” value is “approximately 1 hour”.
